Test results: patent publication US20260232652A1, “COMBINATIONS OF DGK (DIACYLGLYCEROL KINASE) INHIBITORS” (priority 2023, published 2026)
Values joined by “and” are separate entries in the source; they are usually repeats but may differ in a detail not shown here. Identical values can stand only once.

Key:
human DGKzeta = molecular target: T1, human DGKzeta (Homo sapiens, UniProt Q13574); test: Human DGKzeta kinase activity inhibition assay (ADP-Glo); format: biochemical; details: read-out: IC50 hDGKz
T1 construct: C-terminally FLAG-tagged, recombinant full-length human DGKζ; made in house; host or cells: baculovirus-infected insect cells
T1 sequence (Q13574 whole entry): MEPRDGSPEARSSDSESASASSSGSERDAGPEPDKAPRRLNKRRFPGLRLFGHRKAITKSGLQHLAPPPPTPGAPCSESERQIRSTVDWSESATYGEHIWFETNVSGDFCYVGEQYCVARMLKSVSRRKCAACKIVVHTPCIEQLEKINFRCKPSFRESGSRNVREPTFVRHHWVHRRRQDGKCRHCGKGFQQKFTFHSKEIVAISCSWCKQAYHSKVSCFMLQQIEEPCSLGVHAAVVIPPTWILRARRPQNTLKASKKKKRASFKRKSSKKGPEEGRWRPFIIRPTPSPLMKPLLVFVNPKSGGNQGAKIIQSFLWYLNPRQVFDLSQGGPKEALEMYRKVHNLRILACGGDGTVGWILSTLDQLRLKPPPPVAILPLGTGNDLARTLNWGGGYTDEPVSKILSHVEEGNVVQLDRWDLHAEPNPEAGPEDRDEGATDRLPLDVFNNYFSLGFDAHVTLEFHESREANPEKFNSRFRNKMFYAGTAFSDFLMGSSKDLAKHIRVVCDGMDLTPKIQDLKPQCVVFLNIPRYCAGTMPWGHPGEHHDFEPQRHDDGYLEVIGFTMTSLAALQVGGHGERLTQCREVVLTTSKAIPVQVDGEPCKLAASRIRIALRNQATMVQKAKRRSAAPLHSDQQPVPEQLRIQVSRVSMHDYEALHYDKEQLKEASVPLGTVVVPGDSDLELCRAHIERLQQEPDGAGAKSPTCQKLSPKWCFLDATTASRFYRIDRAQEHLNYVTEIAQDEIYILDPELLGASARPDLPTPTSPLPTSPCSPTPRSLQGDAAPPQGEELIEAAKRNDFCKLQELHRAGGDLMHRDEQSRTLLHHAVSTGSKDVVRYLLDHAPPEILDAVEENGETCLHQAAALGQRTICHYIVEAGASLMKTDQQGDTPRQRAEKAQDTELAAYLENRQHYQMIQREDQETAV
Experimental: Human diacylglycerol kinase zeta (DGKζ) inhibitory activity of compounds of the present invention was quantified employing the human DGKζ kinase activity assay as described in the following paragraphs. In essence, the enzyme activity was measured by quantification of the adenosine-di-phosphate (ADP) generated as a co-product of the enzyme reaction via the “ADP-Glo™ Kinase Assay” kit from the company Promega. This detection system works as follows: In a first step the adenosine-tri-phosphate (ATP) not consumed in the kinase reaction is quantitatively converted to cyclic adenosine-mono-phosphate (cAMP) employing an adenylate cyclase (“ADP-Glo-reagent”), then the adenylate cyclase is stopped and the ADP generated in the kinase reaction is converted to ATP, which subsequently generates in a luciferase-based reaction a glow-luminescence signal (“Kinase Detection Reagent”).
(§1) C-terminally FLAG-tagged, recombinant full-length human DGKζ (inhouse expressed in baculovirus infected insect cells, purified using anti-Flag pulldown and size exclusion chromatography) was used as enzyme. As an alternative, commercially available enzyme by Carnabio can be used. As substrate for the kinase, 1,2-dioleoyl-sn-glycerol, reconstituted in octyl-β-D-glucopyranoside micelles, was used. […] Then 35 volumes of 50 mM MOPS buffer (pH 7.4) were added to yield a solution of 0.28 mM 1,2 dioleoyl-sn-glycerol and 200 mM octyl-β-D-glucopyranoside, which was aliquoted, flash-frozen in liquid nitrogen, and stored at −20° C. until use.
For the assay 50 nl of a 100-fold concentrated solution of the test compound in dimethyl sulfoxide (DMSO, Sigma) was pipetted into either a white 1536-well or a white low-volume 384-well microtiter plate (both Greiner Bio-One, Frickenhausen, Germany). […] The concentration of DGKζ was adjusted depending of the activity of the enzyme lot and was chosen appropriate to have the assay in the linear range, a typical concentration is about 0.1 nM. The reaction was stopped by the addition of 2.5 μL of “ADP-Glo-reagent” (1 to 1.5 diluted with water) and the resulting mixture was incubated at 22° C. for 1 h to convert the ATP not consumed in the kinase reaction completely to cAMP. […] The amount of emitted light was taken as a measure for the amount of ADP generated and thereby for the activity of the DGKζ.

human DGKalpha = molecular target: T2, human DGKalpha (Homo sapiens, UniProt P23743); test: Human DGKalpha kinase activity inhibition assay (ADP-Glo); format: biochemical; details: read-out: IC50 hDGKa
T2 construct: made in house; host or cells: baculovirus-infected Sf9 insect cells
T2 sequence (P23743 whole entry): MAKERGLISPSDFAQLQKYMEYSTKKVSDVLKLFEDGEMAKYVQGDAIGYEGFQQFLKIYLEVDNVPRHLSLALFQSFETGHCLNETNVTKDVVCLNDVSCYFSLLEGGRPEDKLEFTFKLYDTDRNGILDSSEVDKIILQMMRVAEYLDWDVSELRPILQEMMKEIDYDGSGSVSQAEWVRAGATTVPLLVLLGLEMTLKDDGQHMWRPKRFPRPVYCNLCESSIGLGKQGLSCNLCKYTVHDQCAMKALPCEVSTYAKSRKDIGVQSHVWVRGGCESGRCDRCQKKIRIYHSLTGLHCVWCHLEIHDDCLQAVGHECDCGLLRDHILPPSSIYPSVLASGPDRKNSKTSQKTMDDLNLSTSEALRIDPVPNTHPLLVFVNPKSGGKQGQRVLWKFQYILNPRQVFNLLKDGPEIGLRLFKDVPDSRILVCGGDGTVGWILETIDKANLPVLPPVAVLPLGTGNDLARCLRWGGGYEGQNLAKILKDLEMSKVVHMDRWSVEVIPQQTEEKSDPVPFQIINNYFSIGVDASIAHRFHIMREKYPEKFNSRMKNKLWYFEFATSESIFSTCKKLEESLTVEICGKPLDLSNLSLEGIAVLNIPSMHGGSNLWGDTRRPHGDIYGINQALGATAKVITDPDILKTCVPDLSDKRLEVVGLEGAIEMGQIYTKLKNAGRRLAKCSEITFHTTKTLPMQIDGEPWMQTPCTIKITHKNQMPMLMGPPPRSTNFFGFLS
Experimental: Human DGKalpha inhibitory activity of compounds of the present invention was quantified employing the human DGKalpha kinase activity assay as described in the following paragraphs. In essence, the enzyme activity was measured by quantification of the adenosine-di-phosphate (ADP) generated as a co-product of the enzyme reaction via the “ADP-Glo™ Kinase Assay” kit from the company Promega. This detection system works as follows: In a first step the ATP not consumed in the kinase reaction is quantitatively converted to cAMP employing an adenylate cyclase (“ADP-Glo-reagent”), then the adenylate cyclase is stopped and the ADP generated in the kinase reaction converted to ATP, which subsequently generates in a luciferase-based reaction a glow-luminescence signal (“Kinase Detection Reagent”).
as §1, with “DGKalpha (expressed” for “DGKζ (inhouse expressed”, “chromatography as described below, DGKa_hu_1)” for “chromatography)”, “As” for “As an alternative, commercially available enzyme by Carnabio can be used. As”, “kinase” for “kinase,”
For the assay 50 nl of a 100-fold concentrated solution of the test compound in dimethyl sulfoxide (DMSO, Sigma) was pipetted into either a white 1536-well or a white low-volume 384-well microtiter plate (both Greiner Bio-One, Frickenhausen, Germany). […] The concentration of DGKα was adjusted depending of the activity of the enzyme lot and was chosen appropriate to have the assay in the linear range, a typical concentration is about 0.1 nM. The reaction was stopped by the addition of […] of “ADP-Glo-reagent” (1 to 1.5 diluted with water) and the resulting mixture was incubated at 22° C. for 1 h to convert the ATP not consumed in the kinase reaction completely to cAMP. […] The amount of emitted light was taken as a measure for the amount of ADP generated and thereby for the activity of the DGKα.

[1] = test system: glioblastoma multiforme (GBM) cells; details: concurrent administration; cited from earlier work

Row | Compound | IC50 (human DGKzeta) | IC50 (human DGKalpha) | growth of intracranially injected GBM tumors [1]
1 | Cn1c(=O)c(C#N)c(N2CCC(c3nc4ccc(F)cc4o3)CC2)c2ccccc21 [Example 4, 4-[4-(6-fluoro-1,3-benzoxazol-2-yl)piperidin-1-yl]-1-methyl-2-oxo-1,2-dihydroquinoline-3-carbonitrile] | > 20000 nM | – | –
2 | CC(C(N)=O)N(c1ccc(F)cc1)c1nc(N)c(C(=O)c2ccc(OC(F)F)cc2)s1 (single isomer, unassigned) [Example 44.2, 2-(N-[4-amino-5-[4-(difluoromethoxy)benzoyl]thiazol-2-yl]-4-fluoro-anilino)propanamide] | 3.9 nM and 6.7 nM | > 20000 nM | –
3 | Cc1ccc2oc(C3CCN(c4c(C(N)=O)c(=O)n(C)c5ccccc45)CC3)nc2c1 [Example 107, 1-methyl-4-[4-(5-methyl-1,3-benzoxazol-2-yl)piperidin-1-yl]-2-oxo-1,2-dihydroquinoline-3-carboxamide] | > 20000 nM | – | –
4 | Cc1nc2sccn2c(=O)c1CCN1CCC(=C(c2ccccc2)c2ccc(F)cc2)CC1 [Example R59022] | – | – | decreased growth of intracranially injected GBM tumors
5 | CC(C(N)=O)N(c1ccc(F)cc1)c1nc(N)c(C(=O)c2ccc(C(F)(F)F)nc2)s1 (single isomer, unassigned) [Example 29.2, 2-(N-[4-amino-5-[6-(trifluoromethyl)pyridine-3-carbonyl]thiazol-2-yl]-4-fluoro-anilino)propanamide] | 46 nM | > 15000 nM | –
6 | COc1ccc(C(=O)c2sc(N(c3ccc(F)c(F)c3)C(C)C(N)=O)nc2N)cc1 (single isomer, unassigned) [Example 51.1, 2-(N-[4-amino-5-(4-methoxybenzoyl)thiazol-2-yl]-3,4-difluoro-anilino)propanamide] | 8.2 nM and 8.9 nM | > 13300 nM | –
7 | COc1ccc(C2CCN(c3c(C(N)=O)c(=O)n(C)c4ccccc34)CC2)cc1 [Example 112, 4-[4-(4-methoxyphenyl)piperidin-1-yl]-1-methyl-2-oxo-1,2-dihydroquinoline-3-carboxamide] | > 20000 nM | – | –
8 | CC(C(N)=O)N(c1ccc(F)cc1)c1nc(N)c(C(=O)c2ccc(OC(F)(F)F)cc2)s1 (single isomer, unassigned) [Example 40.2, 2-(N-[4-amino-5-[4-(trifluoromethoxy)benzoyl]thiazol-2-yl]-4-fluoro-anilino)propanamide] | 7.1 nM | > 12200 nM | –
9 | CNC(=O)c1c(N2CCC(c3nc4cc(C)ccc4o3)CC2)c2ccccc2n(C)c1=O [Example 448, N,1-dimethyl-4-[4-(5-methyl-1,3-benzoxazol-2-yl)piperidin-1-yl]-2-oxo-1,2-dihydroquinoline-3-carboxamide] | > 20000 nM | – | –
